From article PMC7555119, “Characterization of Novel Synthetic Polyphenols: Validation of Antioxidant and Vasculoprotective Activities” (Antioxidants, 2020)
≈ marks a conversion by molar mass, not a printed value. Where “and” joins values, the source holds several entries; their conditions need not be identical. Equal values may be shown once. Read-outs that look alike come from different tables or passages of the source.

Experiments:
[1] = Oxygen radical absorbance capacity (ORAC) assay
Method: The ORAC assay was performed following Ou et al., as modified by Garcés-Rimón et al.. All samples and reagents were dissolved in phosphate buffer (75 mM; pH 7.4). […] The fluorescence was recorded at 40 °C every 55 s for 95 min using a fluorimeter (SpectraMax M2; Molecular Devices, California, USA), with excitation and emission wavelengths of 480 and 520 nm, respectively. All samples were tested in triplicate. ORAC values were expressed as μmol of Trolox equivalents (TE)/μmol of pure compound.

[2] = ABTS radical cation scavenging assay
Method: The 2,2′-azino-bis (3-ethylbenzothiazoline-6-sulfonic acid) diammonium salt (ABTS) assay was performed according to Re et al. and modified by Oki et al. for its use in microplates. Samples were diluted in methanol. An ABTS^•+ stock solution was prepared by adding 44 μL of potassium persulfate (140 mmol/L) to a 2.5 mL ABTS^•+ aqueous solution (7 mmol/L). The working solution of the radical ABTS^+ was prepared by diluting the stock solution 1:75 (v/v) in a sodium phosphate buffer (5 mmol/L, pH 7.4) to obtain an absorbance value of 0.7±0.02 at 734 nm. Samples (30 μL) were added to 270 μL of the working solution of ABTS^•+ in a microplate. Absorbance was measured at 734 nm and 30 °C for 20 min, every 5 min in a Synergy HT plate spectrophotometer (Biotek Instruments, Winoosky, VT, USA). A calibration curve was made with Trolox (20–250 μM). All samples were analyzed in triplicate. Results were expressed in μmol TE/μmol of pure compound, as for the ORAC assays.

[3] = DPPH free radical scavenging assay (RSA); settings: for concentration down to which RSA ability is maintained independently of time: 10 min to 2 h; for RSA capacity fold higher compared to resveratrol: after 10 min, from IC50; for RSA percentage: highest concentration 2 mM, 10 min
Method: For the 2,2′-diphenylpicrylhydrazyl (DPPH) assay, antioxidant compounds were dissolved in ethanol with a stock concentration of 4 mM and stirred for 24 h. DPPH (Alfa Aesar) was also dissolved in ethanol at 0.127 mM. Different compound solutions were prepared by serial dilutions of each stock solution ([…]). […] Amounts of 80 µL of each solution and 80 µL of DPPH were added in a 96-well plate. The absorbance was measured at different times (10, 20 and 30 min and 1 and 2 h) by a Multi-Detection Microplate Reader Synergy HT (λMAX = 515 nm). Radical scavenging activity (RSA, %) was calculated using Equation (1) (1) RSA(%)=ADPPH−AEXTRACT/ADPPH·100 where AEXTRACT and ADPPH correspond to the absorbance of DPPH with and without the extracts, respectively. Eight replicates were used for each compound and results were expressed as mean value ± standard deviation. The RSA half-maximal inhibitory concentration (IC50) values were calculated from the relationship curve of RSA versus concentrations by a non-linear fit using the software GraphPad Prism 7.

[4] = Stability in aqueous media (H2O/acetonitrile 80:20, HPLC-MS); type: physicochemical; settings: for stability in aqueous media: H2O/acetonitrile (80:20%), room temperature, checked for 60 days; for Aqueous Stability (%): remaining pure compound (HPLC) after two months at room temperature in aqueous solution (+20% acetonitrile)
Excerpt: The solutions were checked by HPLC-MS at regular intervals of time for 60 days. […] The rest of the compounds suffered progressive degradation, with complete disappearance from the solution after 10 or 20 days. The most unstable polyphenol derivatives were 4 and 10 (Figure S1), having both two p-dihydroxy substitutions in the phenyl rings, which points to the rapid and easy oxidation to the p-hydroquinone. From the four compounds with three phenyl rings, only one was stable in aqueous solution (17).

[5] = tested on: human dermal fibroblasts (HDF); assay: Cell viability, AlamarBlue assay; type: cell-based; settings: for IC50: 24 h, AlamarBlue, non-linear fit
Method: Cytotoxicity of selected antioxidant compounds was assessed using human dermal fibroblasts (HDF, Innoprot, P10856) and an AlamarBlue assay. Human fibroblasts were grown and maintained using Dulbecco’s Modified Eagle Medium high glucose (DMEM, Sigma Aldrich, D6171), supplemented with 10% Fetal Bovine Serum (FBS), 2% L-glutamine and 1% penicillin/streptomycin. Cells were incubated at 37 °C, 95% relative humidity and 5% CO2. Additionally, DMEM-high glucose, HEPES, no phenol red (Gibco, 2106329) was used to prepare the AlamarBlue solution. Stock solutions of the antioxidant compounds 3, 8, 15 and 17 were prepared in dimethyl sulfoxide (DMSO). Compound 7 was not soluble enough in DMSO to obtain a cell viability IC50 value. Serial dilutions of the antioxidant compounds were prepared using the previously mentioned stock solutions and DMEM. Final DMSO concentration was maintained lower than 1% v/v in the cell culture experiments. HDF were seeded at 9 × 10^4 cells/well in a 96-well plate and incubated for 24 h. The medium was replaced by the corresponding antioxidant solutions and incubated for an additional 24 h. Then, compounds were removed, cells were washed with Dulbecco’s Phosphate Buffered Saline (PBS, Sigma Aldrich) and treated with a 10% v/v AlamarBlue (Invitrogen) solution prepared in DMEM without phenol red. After 3 h of incubation, absorbance was monitored at 570 nm by a Multi-Detection Microplate Reader Synergy HT. Cells treated with DMEM without any antioxidant compound were used as the 100% viability control. Eight replicates were used for each antioxidant solution. IC50 values were obtained by a non-linear fit using the software GraphPad Prism 7.

[6] = tested on: NADPH oxidase activity in human microvascular endothelial cells (HMEC-1); assay: NADPH oxidase activity in endothelial cells stimulated with Angiotensin II; type: cell-based; settings: HMEC-1, AngII 1 nmol/L 6 h, compound added 30 min before
Method: The human microvascular endothelial cells line (HMEC-1) (ATCC®, Middlesex, UK; CRL-3243™) was used. Cells were cultured according to the manufacturer instructions with MCDB131 medium (Corning, NY, USA, Cat. No. 702564) supplemented with 10 ng/mL epidermal growth factor (Sigma-Aldrich, Alcobendas, Spain), 1 μg/mL hydrocortisone (Sigma-Aldrich), 10 mmol/L glutamine (Sigma-Aldrich), 10% fetal bovine serum (FBS, Sigma-Aldrich), 100 U/mL of penicillin and 100 µg/mL of streptomycin. At 80% confluence, cells were serum-deprived for 24 h before stimulation. HMEC were treated with AngII (1 nmol/L for 6 h; Sigma-Aldrich) in the absence or in the presence of the different compounds that were added 30 min before stimulation.
(§1) The O2 production generated by NADPH oxidase was determined by a chemiluminescence assay. Briefly, endothelial cells or aortic segments were homogenized in phosphate buffer (50 mmol/L KH2PO4, 1 mmol/L EGTA, 150 mmol/L sucrose, pH 7.4). The reaction was started by the addition of a lucigenin (5 μmol/L) and NADPH (100 μmol/L; Sigma-Aldrich) mixture to the protein sample in a final volume of 250 μL. Chemiluminescence was determined every 2.4 s for 3 min in a microtiter plate luminometer (Enspire Perkin Elmer). Basal activity in the absence of NADPH was subtracted from each reading and normalized to protein concentration. Data were normalized vs. control situation.

[7] = tested on: NADPH oxidase activity in segments of aorta from C57BL6/J mice; assay: NADPH oxidase activity in aortic segments stimulated ex vivo with IL-1β; settings: IL-1β 10 ng/mL 6 h
Method: Aortic segments from three-month-old C57BL6/J mice were incubated with IL-1β (10 ng/mL, 6 h, Sigma Aldrich) in the presence and in the absence of the different compounds that were added 30 min before stimulation.
as §1

[8] = Aqueous thermodynamic solubility in H2O (UV); type: physicochemical; settings: water, thermodynamic from solid
Excerpt: 4) Log P and aqueous solubility of selected compounds.
Table S2. Theoretical Log P values and aqueous thermodynamic solubility measured for
Comp `Chemical Structure MW LogP Calc Aqueous Solubility a
a Thermodynamic solubility in H 2O (UV). […]

[9] = tested on: Saccharomyces cerevisiae strain BY4741; assay: In vivo antioxidant capacity in stressed yeasts (growth recovery, survivors); type: cell-based
Method: Saccharomyces cerevisiae haploid strain BY4741 was used as described previously. Briefly, 20 μL of glycerol stock culture was revived in 5ml of YPD medium (1% yeast extract, 2% bacteriological peptone and 2% dextrose) at 28 °C, with shaking (210 rpm). Fifty microliters of 20-h-old culture was used to inoculate fresh 5ml YPD (control medium) or 5 mL of oxidative stress medium (YPOxD: YPOxD; 1% yeast extract, 2% bacteriological peptone, 1% dextrose and 3% H2O2). Stress (and control) was conducted during 16h at 28 °C, with shaking (220 rpm).
Growth rate was determined from growth kinetics using the BioScreen C plate-reader system (OY Growth Curves Ab Ldt., Helsinki, Finland). Stressed yeast cultures (16 h old) were used to inoculate 200 µl of fresh media to an initial OD595 of 0.05–0.07, being distributed in 100-well honeycomb plates (Oy Growth Curves) in triplicate per each condition (each different dose of each compound). Plates were then incubated at 28 °C for 72h, with shaking (High force), taking OD measurement each 15 min in the Bioscreen C. Maximum growth rate (μmax) and biomass production (carrying capacity) were determined in R using ‘Growthcurver’ package version 0.3 [24]. Growth curves were constructed in EXCEL, represented as mean ± SEM (standard error of mean). […] In addition, to measure survival after oxidative stress and antioxidant effectiveness of each compound, yeast cells from each challenge were serially diluted in 96-well plates, and each dilution was spotted (with a 8 × 6 stainless steel replica platter from SIGMA) in triplicate to determine viable colonies after 24–48 h at 28 °C. Survivors (mean ± SEM) were compared between treatments with one-way ANOVA, Fisher’s LSD test, with alpha at 0.05 for significance.

[10] = compound needed to reach 50% RSA after 10 min, read-out: DPPH PSA IC50 10 min
[11] = read-out: DPPH PSA IC50 2 h, compound needed to reach 50% RSA after 2 h

SMILES | ORAC [1] | ORAC ([1]; TE: Trolox Equivalents) | ABTS [2] | ABTS (values in text) [2] | concentration down to which RSA ability is maintained independently of time [3] | RSA capacity fold higher compared to resveratrol [3] | IC50 [3, 10] | RSA percentage [3] | IC50 [3, 11] | stability in aqueous media [4] | Aqueous Stability (%) [4] | IC50 [5] | IC50 ([5]; Homo sapiens, Fibroblast) | effect on NADPH oxidase activity induced by Angiotensin II [6] | effect on NADPH oxidase activity induced by IL-1β [7] | solubility [8] | melting point | further results
O=C(Cc1cc(O)ccc1O)Nc1ccc(O)cc1 [Compound 3, 2-(2′,5′-Dihydroxyphenyl)-N-(4-hydroxyphenyl)acetamide] | 19.2 ± 0.2 µmol of trolox/µmol of pure compound | > 19 TE | 3.27 ± 0.1 µmol of trolox/µmol of pure compound | 3.2 TE | 0.031 mM | 8 fold | 8.3 µM | ~78% | 6.77 µM | sufficiently stable | 77% | 246 µM and 240 µM | 246 µM | decreasing NADPH oxidase activity levels in the same order as resveratrol | significant inhibition of the IL-1β effects | 1.3 ± 0.1 mg/mL (≈ 5.01 mM) | 185 to 187 °C (dec.) | RSA ([3]; 0.031 mM, maintained from 10 min to 2 h): 78%; cell viability IC50 fold lower than compounds 17 and 8 [5]: 5–7 fold
O=C(Cc1ccc(O)c(O)c1)Nc1ccc(O)cc1 [Compound 7, 2-(3′,4′-Dihydroxyphenyl)-N-(4-hydroxyphenyl)acetamide] | 19.2 ± 0.4 µmol of trolox/µmol of pure compound and 19.2 ± 0. µmol of trolox/µmol of pure compound | > 19 TE | 8.12 ± 0.09 µmol of trolox/µmol of pure compound | 8.1 TE | 0.063 mM | 2.8 fold | 24.1 µM | 82% | 23.3 µM | sufficiently stable | 90% |  |  | decreasing NADPH oxidase activity levels in the same order as resveratrol | significant inhibition of the IL-1β effects | 3.1 ± 0.1 mg/mL (≈ 12 mM) | 192 to 194 °C | cytotoxic effects ([5]; range where soluble in DMSO (up to 6 mM)): did not show any significant cytotoxic effects
O=C(Cc1ccc(O)cc1O)Nc1ccc(O)cc1 [Compound 8, 2-(2′,4′-Dihydroxyphenyl)-N-(4-hydroxyphenyl)acetamide] | 19.3 ± 0.5 µmol of trolox/µmol of pure compound | > 19 TE | 5.00 ± 0.09 µmol of trolox/µmol of pure compound |  |  |  | 151 µM | 67% | 64.2 µM | sufficiently stable | 98% | > 1400 µM | 1410 µM |  |  | 4.1 ± 0.1 mg/mL (≈ 15.8 mM) | 186 to 189 °C | growth rate (r) recovery of stressed yeast ([9]; H2O2-stressed BY4741, doses 2, 20 and 40 μg): dose-related antioxidant effect; carrying capacity (k) recovery of stressed yeast ([9]; H2O2-stressed BY4741, each dose tested): able to recover the carrying capacity of yeast cells similarly as control antioxidants
